Laboratory results from PubChem BioAssay (NCI).
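All cell lines were grown in 96-well plates and treated with compound for 48 hours. TGI marks complete inhibition of growth.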

Tests used:
Experiment in all cases: growth of human tumour cells (NCI), 48 h
HOP-18 NSCLC = test system: HOP-18 NSCLC
DMS 114 small cell lung = test system: DMS 114 small cell lung
KM12 colon = test system: KM12 colon
IGROV1 ovarian = test system: IGROV1 ovarian
EKVX NSCLC = test system: EKVX NSCLC
K-562 leukemia = test system: K-562 leukemia
SNB-75 CNS = test system: SNB-75 CNS
M19-MEL melanoma = test system: M19-MEL melanoma
OVCAR-8 ovarian = test system: OVCAR-8 ovarian
786-0 renal = test system: 786-0 renal
HOP-62 NSCLC = test system: HOP-62 NSCLC
NCI-H23 lung = test system: NCI-H23 lung
SW-620 colon = test system: SW-620 colon
RXF 393 renal = test system: RXF 393 renal
SF-295 CNS = test system: SF-295 CNS
A498 renal = test system: A498 renal
SK-MEL-5 melanoma = test system: SK-MEL-5 melanoma
DMS 273 small cell lung = test system: DMS 273 small cell lung
OVCAR-3 ovarian = test system: OVCAR-3 ovarian
LXFL 529 NSCLC = test system: LXFL 529 NSCLC
U251 CNS = test system: U251 CNS
XF 498 CNS = test system: XF 498 CNS
MOLT-4 leukemia = test system: MOLT-4 leukemia
KM20L2 colon = test system: KM20L2 colon
SK-MEL-28 melanoma = test system: SK-MEL-28 melanoma
MALME-3M melanoma = test system: MALME-3M melanoma
OVCAR-4 ovarian = test system: OVCAR-4 ovarian
HOP-92 NSCLC = test system: HOP-92 NSCLC
SN12C renal = test system: SN12C renal
A549 NSCLC = test system: A549 NSCLC
SF-539 CNS = test system: SF-539 CNS
UACC-62 melanoma = test system: UACC-62 melanoma
HT29 colon = test system: HT29 colon
OVCAR-5 ovarian = test system: OVCAR-5 ovarian
TK-10 renal = test system: TK-10 renal
SR leukemia = test system: SR leukemia
ACHN renal = test system: ACHN renal
CAKI-1 renal = test system: CAKI-1 renal
CCRF-CEM leukemia = test system: CCRF-CEM leukemia
HCC-2998 colon = test system: HCC-2998 colon
M14 melanoma = test system: M14 melanoma
RPMI-8226 leukemia = test system: RPMI-8226 leukemia
UACC-257 melanoma = test system: UACC-257 melanoma
SK-OV-3 ovarian = test system: SK-OV-3 ovarian
SNB-19 CNS = test system: SNB-19 CNS
SF-268 CNS = test system: SF-268 CNS
NCI-H226 lung = test system: NCI-H226 lung
DLD-1 colon = test system: DLD-1 colon
COLO 205 colon = test system: COLO 205 colon
LOX IMVI melanoma = test system: LOX IMVI melanoma
HCT-116 colon = test system: HCT-116 colon
UO-31 renal = test system: UO-31 renal
SNB-78 CNS = test system: SNB-78 CNS
NCI-H460 lung = test system: NCI-H460 lung
HL-60(TB) leukemia = test system: HL-60(TB) leukemia
SK-MEL-2 melanoma = test system: SK-MEL-2 melanoma
HCT-15 colon = test system: HCT-15 colon
NCI-H522 lung = test system: NCI-H522 lung
RXF-631 renal = test system: RXF-631 renal

Measured: TGI

COC(=O)C1C(=O)O[C@@H](c2ccc(OC)cc2)C1C(=O)OC (some centres not stated)
not listed: SNB-78 CNS | NCI-H460 lung | HL-60(TB) leukemia | SK-MEL-2 melanoma | HCT-15 colon | NCI-H522 lung | RXF-631 renal
> 100 µM: all other assays above

Cc1ccc(NC(=O)C2C(=O)C(=O)N(c3ccc(C)cc3)C2=O)cc1 (configuration not stated)
not listed: SNB-75 CNS | DMS 273 small cell lung | OVCAR-3 ovarian | XF 498 CNS | SK-MEL-28 melanoma | CAKI-1 renal | RPMI-8226 leukemia | SK-OV-3 ovarian | NCI-H226 lung | LOX IMVI melanoma | RXF-631 renal
> 100 µM: all other assays above

NC1=NN(c2ccccc2)C(=O)C1C(=O)C(=O)NC1C2CC3CC(C2)CC1C3 (configuration not stated)
not listed: SNB-75 CNS | A498 renal | XF 498 CNS | CAKI-1 renal | RPMI-8226 leukemia | NCI-H522 lung
> 100 µM: all other assays above

O=S1c2ccccc2N=C(c2ccc3ccccc3c2)CC1c1ccccc1 (configuration not stated)
92.3 µM: SK-MEL-2 melanoma
56.1 µM: OVCAR-4 ovarian
30 µM: OVCAR-8 ovarian
32.5 µM: HCT-15 colon
37.2 µM: SF-268 CNS
33.6 µM: HCT-116 colon
41 µM: NCI-H460 lung
42.9 µM: OVCAR-5 ovarian
38.5 µM: SNB-75 CNS
36.6 µM: HCC-2998 colon
35.1 µM: HT29 colon
73.9 µM: SN12C renal
40 µM: COLO 205 colon
63.8 µM: SR leukemia
37.7 µM: SF-539 CNS
78.9 µM: NCI-H226 lung
32.6 µM: U251 CNS
34.9 µM: M19-MEL melanoma | SNB-19 CNS | NCI-H522 lung
35.9 µM: A498 renal
94.4 µM: RPMI-8226 leukemia
68.7 µM: TK-10 renal
29.3 µM: SW-620 colon
40.3 µM: IGROV1 ovarian
32.4 µM: UO-31 renal
28.8 µM: KM12 colon
81.2 µM: CCRF-CEM leukemia
91.5 µM: EKVX NSCLC
92.6 µM: SK-OV-3 ovarian
31.8 µM: ACHN renal
62.1 µM: K-562 leukemia
39 µM: NCI-H23 lung
48.4 µM: DLD-1 colon
36.2 µM: SF-295 CNS
29.8 µM: LXFL 529 NSCLC
58.1 µM: HL-60(TB) leukemia
35.7 µM: KM20L2 colon
36.5 µM: LOX IMVI melanoma
41.3 µM: A549 NSCLC
not listed: HOP-18 NSCLC | DMS 114 small cell lung | 786-0 renal | RXF 393 renal | OVCAR-3 ovarian | MALME-3M melanoma | RXF-631 renal
> 100 µM: all other assays above

Cn1nc(-c2ccccc2)c(C(=O)/C=C/c2ccccc2)c(N2CCCCC2)c1=O
42.8 µM: HOP-62 NSCLC
86.7 µM: HOP-92 NSCLC
73.1 µM: RXF 393 renal
69 µM: HT29 colon
12.3 µM: HL-60(TB) leukemia
62.8 µM: SK-MEL-28 melanoma
60.1 µM: CAKI-1 renal
not listed: KM12 colon | SNB-75 CNS | M19-MEL melanoma | SF-295 CNS | A498 renal | OVCAR-3 ovarian | XF 498 CNS | MALME-3M melanoma | OVCAR-4 ovarian | OVCAR-5 ovarian | SR leukemia | HCC-2998 colon | RPMI-8226 leukemia | UACC-257 melanoma | NCI-H226 lung | SNB-78 CNS | SK-MEL-2 melanoma
> 100 µM: all other assays above

Nc1ccccc1S(=O)c1ccccc1 (configuration not stated)
> 1 µM: HT29 colon | CAKI-1 renal | UACC-257 melanoma
not listed: SR leukemia | DLD-1 colon | SNB-78 CNS | RXF-631 renal
> 100 µM: all other assays above
